In patent US9328138B2 (priority 2011, dated 2016) one finds Ki data, which are given here for 13 molecules.

The term pKi denotes the Ki on a negative log10 scale, so that one unit is a factor of ten.

pKi: −log10 of the molar value.

In test [1] the target is HCV NS3 protease genotype 3a (3A-1) (Hepatitis C virus genotype 3a, UniProt Q81258). The test is described as follows: HCV NS3 protease time-resolved fluorescence (TRF) assay, genotype 3a. Type of test: biochemical. The settings on record: Ki 3a. The procedure, abridged:
(§1)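 Inhibitor titrations are mixed with NS3/NS4A in pH 7.5 HEPES buffer containing 10 mM DTT and 15% glycerol for 10 min before substrate (25 nM final) is added. After 6 h at room temperature, delayed fluorescence is read and fitted to a four-parameter curve for IC50.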

For test [2], the target named is T1, HCV genotype 1b (BK) NS3 modified enzyme with a R155K mutation (Hepatitis C virus genotype 1b, UniProt P26663, R1181K).
T1 construct: HCV genotype 1b (BK) NS3 modified enzyme
The test is described as follows: HCV NS3 protease time-resolved fluorescence (TRF) assay, genotype 1b R155K. The format is biochemical. The settings on record: Ki 1b R155K, genotype 1b (BK) NS3 R155K; single value. The procedure, abridged:
as §1

Regarding `C=C[C@@H]1C[C@]1(NC(=O)[C@@H]1C[C@@H]2CN1C(=O)[C@H](C(C)(C)C)NC(=O)O[C@@H]1C[C@H]1CCCCCc1c(nc3ccccc3c1OCCN1CCS(=O)(=O)CC1)O2)C(=O)NS(=O)(=O)C1(C)CC1` [Example 176, (1aR,5S,8S,10R,22aR)-5-tert-butyl-17-[2-(1,1-dioxidothiomorpholin-4-yl)ethoxy]-N-[(1R,2S)-2-ethenyl-1-{[(1-methylcyclopropyl)sulfonyl]carbamoyl}cyclopropyl]-3,6-dioxo-1,1a,3,4,5,6,9,10,18,19,20,21,22,22a-tetradecachydro-8H-7,10-methanocyclopropa[18,19][1,10,3,6] dioxadiazacyclononadecino[11,12-b] quinoline-8-carboxamide], the pKi in test [1] is 8.89; in test [2] it was 10.00.
For the molecule `C=C[C@@H]1C[C@]1(NC(=O)[C@@H]1C[C@@H]2CN1C(=O)[C@H](C(C)(C)C)NC(=O)O[C@@H]1CCC[C@H]1CCCCCc1c(nc3ccccc3c1OCCN1CCOCC1)O2)C(=O)NS(=O)(=O)C1(COC)CC1` [Example 61, (3aR,7S,10S,12R,24aR)-7-tert-butyl-N-[(1R,2S)-2-ethenyl-1-({[1-(methoxymethyl)cyclopropyl]sulfonyl}carbamoyl)cyclopropyl]-19-[2-(morpholin-4-yl)ethoxy]-5,8-dioxo-1,2,3,3a,5,6,7,8,11,12,20,21,22,23,24,24a-hexadecahydro-10H-9,12-methanocyclopenta[18,19][1,10,3,6]dioxadiazacyclononadecino[11,12-b]quinoline-10-carboxamide], the pKi in test [1] is 7.70; in test [2] it was 9.15.
For `C=CC1C[C@]1(NC(=O)[C@@H]1C[C@@H]2CN1C(=O)[C@H](C1CCCC1)NC(=O)O[C@@H]1CCC[C@H]1CC/C=C/Cc1c(nc3ccccc3c1OCCN1CCCCC1)O2)C(=O)NS(=O)(=O)C1CC1` (some centres unmarked) [Example 81], the pKi in test [1] was 8.34; in test [2], 9.54.
The matching figures for `C=C[C@@H]1C[C@]1(NC(=O)[C@@H]1C[C@@H]2CN1C(=O)[C@H](C(C)(C)C)NC(=O)O[C@@H]1C[C@H]1CCCCCc1c(nc3ccccc3c1OCCCN1CCCC(F)C1)O2)C(=O)NS(=O)(=O)C1(C)CC1` (stereo partly drawn) [Example 158, (1aR,5S,8S,10R,22aR)-5-tert-butyl-N-[(1R,2S)-2-ethenyl-1-{[(1-methylcyclopropyl)sulfonyl]carbamoyl}cyclopropyl]-17-[3-(3-fluoropiperidin-1-yl)propoxy]-3,6-dioxo-1,1a,3,4,5,6,9,10,18,19, 20,21,22,22a-tetradecahydro-8H-7,10-methanocyclopropa[18,19][1,10,3,6] dioxadiazacyclononadecino[11,12-b] quinoline-8-carboxamide]: 8.59 and 9.72.
`C=C[C@@H]1C[C@]1(NC(=O)[C@@H]1C[C@@H]2CN1C(=O)[C@H](C(C)(C)C)NC(=O)O[C@@H]1C[C@H]1CCCCCc1c(nc3ccccc3c1OCCN1CCOCC1)O2)C(=O)NS(=O)(=O)C1(C)CC1` [Example 113, (1aR,5S,8S,10R,22aR)-5-tert-butyl-N-[(1R,2S)-2-ethenyl-1-{[(1-methylcyclopropyl)sulfonyl]carbamoyl}cyclopropyl]-17-[2-(morpholin-4-yl)ethoxy]-3,6-dioxo-1,1a,3,4,5,6,9,10,18,19,20,21,22,22a-tetradecahydro-8H-7,10-methanocyclopropa[18,19][1,10,3,6]dioxadiazacyclononadecino[11,12-b]quinoline-8-carboxamide]: the pKi in test [1] was 8.80; in test [2] it was 10.05.
The matching figures for `C=C[C@@H]1C[C@]1(NC(=O)[C@@H]1C[C@@H]2CN1C(=O)[C@H](C(C)(C)C)NC(=O)O[C@@H]1C[C@H]1CCCCCc1c(nc3ccccc3c1OCCCNCCc1cccc3ccccc13)O2)C(=O)NS(=O)(=O)C1(C)CC1` [Example 189, (1aR,5S,8S,10R,22aR)-5-tert-butyl-N-[(1R,2S)-2-ethenyl-1-{[(1-methylcyclopropyl)sulfonyl]carbamoyl}cyclopropyl]-17-(3-{[2-(naphthalen-1-yl)ethyl]amino}propoxy)-3,6-dioxo-1,1a,3,4,5,6,9,10,18,19,20, 21,22,22a-tetradecahydro-8H-7,10-methanocyclopropa[18,19][1,10,3,6] dioxadiazacyclononadecino[11,12-b] quinoline-8-carboxamide]: 8.47 and 10.09.
The matching figures for `C=C[C@@H]1C[C@]1(NC(=O)[C@@H]1C[C@@H]2CN1C(=O)[C@H](C(C)(C)C)NC(=O)O[C@@H]1C[C@H]1CCCCCc1c(nc3cc(C)ccc3c1OCCCN1CCCC1)O2)C(=O)NS(=O)(=O)C1(C)CC1` [Example 146, (1aR,5S,8S,10R,22aR)-5-tert-butyl-N-[(1R,2S)-2-ethenyl-1-{[(1-methylcyclopropyl)sulfonyl]carbamoyl}cyclopropyl]-14-methyl-3,6-dioxo-17-[3-(pyrrolidin-1-yl)propoxy]-1,1a,3,4,5,6,9,10,18, 19,20,21,22,22a-tetradecahydro-8H-7,10-methano cyclopropa[18,19][1,10,3,6] dioxadiazacyclonona decino[11,12-b]quinoline-8-carboxamide]: 9.17 and 10.27.
The matching figures for `C=C[C@@H]1C[C@]1(NC(=O)[C@@H]1C[C@@H]2CN1C(=O)[C@H](C1CCCC1)NC(=O)O[C@@H]1CCC[C@H]1CCCCCc1c(nc3ccccc3c1OC)O2)C(=O)NS(=O)(=O)C1CC1` [Example 26, (3aR,7S,10S,12R,24aR)-7-cyclo pentyl-N-{(1R,2S)-1-[(cyclopropylsulfonyl)carbamoyl]-2-ethenylcyclopropyl}-19-methoxy-5,8-dioxo-1,2,3,3a,5,6,7,8,11,12,20,21,22,23,24,24a-hexadecahydro-10H-9,12-methanocyclopenta [18,19][1,10,3,6]dioxadiazacyclononadecino [11,12-b]quinoline-10-carboxamide]: 7.89 and 9.48.
For `C=C[C@@H]1C[C@]1(NC(=O)[C@@H]1C[C@@H]2CN1C(=O)[C@H](C(C)(C)C)NC(=O)O[C@@H]1C[C@H]1CCCCCc1c(nc3ccccc3c1OCCNC(C)(C)C)O2)C(=O)NS(=O)(=O)C1(C)CC1` [Example 177, (1aR,5S,8S,10R,22aR)-5-tert-butyl-17-[2-(tert-butylamino)ethoxy]-N-[(1R,2S)-2-ethenyl-1-{[(1-methylcyclopropyl)sulfonyl]carbamoyl}cyclopropyl]-3,6-dioxo-1,1a,3,4,5,6,9,10, 18,19,20,21,22,22a-tetradeca hydro-8H-7,10-methanocyclopropa[18,19][1,10,3,6] dioxadiazacyclononadecino[11,12-b] quinoline-8-carboxamide], the pKi in test [1] was 8.96; in test [2], 9.85.
The matching figures for `C=C[C@@H]1C[C@]1(NC(=O)[C@@H]1C[C@@H]2CN1C(=O)[C@H](C(C)(C)C)NC(=O)O[C@@H]1C[C@H]1CCCCCc1c(nc3ccccc3c1OC[C@H]1CCN(C(=O)OC(C)(C)C)C1)O2)C(=O)NS(=O)(=O)C1(C)CC1` [Example 137, tert-butyl (3S)-3-({[(1aR,5S,8S,10R,22aR)-5-tert-butyl-8-{[(1R,2S)-2-ethenyl-1-{[(1-methylcyclopropyl)sulfonyl]carbamoyl}cyclopropyl]carbamoyl}-3,6-dioxo-1,1a,3,4,5,6,9,10,18,19,20,21,22,22a-tetradecahydro-8H-7,10-methanocyclopropa[18,19][1,10,3,6]dioxadiazacyclononadecino[11,12-b]quinolin-17-yl]oxy}methyl)pyrrolidine-1-carboxylate]: 8.92 and 9.85.
The matching figures for `C=C[C@@H]1C[C@]1(NC(=O)[C@@H]1C[C@@H]2CN1C(=O)[C@H](C(C)(C)C)NC(=O)O[C@@H]1C[C@H]1CCCCCc1c(nc3ccccc3c1OCCCN(CCOC)CCOC)O2)C(=O)NS(=O)(=O)C1(C)CC1` [Example 186, (1aR,5S,8S,10R,22aR)-17-{3-[bis(2-methoxyethyl)amino]propoxy}-5-tert-butyl-N-[(1R,2S)-2-ethenyl-1-{[(1-methylcyclopropyl)sulfonyl]carbamoyl}cyclopropyl]-3,6-dioxo-1,1a,3,4,5,6,9,10, 18,19,20,21,22,22a-tetradecahydro-8H-7,10-methanocyclopropa[18,19][1,10,3,6] dioxadiazacyclononadecino[11,12-b] quinoline-8-carboxamide]: 8.72 and 10.11.
The matching figures for `O=C1N[C@@H](C2CCCC2)C(=O)N2C[C@@H](C[C@H]2C(=O)N[C@]2(C(=O)NS(=O)(=O)C3CC3)C[C@H]2C2CC2)Oc2nc3ccccc3c(O)c2C/C=C/CC[C@@H]2CCC[C@H]2O1` [Example 21, (3aR,7S,10S,12R,21E,24aS)-7-cyclopentyl-N-[(1S,2R)-2-[(cyclopropylsulfonyl)carbamoyl]-1,1′-bi(cyclopropyl)-2-yl]-19-hydroxy-5,8-dioxo-1,2,3,3a,5,6,7,8,11,12,20,23,24,24a-tetradecahydro-10H-9,12-methanocyclopenta[18,19][1,10,3,6]dioxadiazacyclononadecino[11,12-b]quinoline-10-carboxamide]: 8.02 and 9.29.
Take `C=C[C@@H]1C[C@]1(NC(=O)[C@@H]1C[C@@H]2CN1C(=O)[C@H](C(C)(C)C)NC(=O)O[C@@H]1C[C@H]1CCCCCc1c(nc3ccccc3c1OCCCNCCN1CCCC1=O)O2)C(=O)NS(=O)(=O)C1(C)CC1` [Example 197, (1aR,5S,8S,10R,22aR)-5-tert-butyl-N-[(1R,2S)-2-ethenyl-1-{[(1-methylcyclopropyl)sulfonyl]carbamoyl}cyclopropyl]-3,6-dioxo-17-(3-{[2-(2-oxopyrrolidin-1-yl)ethyl]amino}propoxy)-1,1a,3,4,5,7,9,10, 18,19,20,21,22,22a-tetra decahydro-8H-7,10-methanocyclopropa[18,19][1,10,3,6] dioxdiazacyclononadecino[11,12-b] quinoline-8-carboxamide]: the pKi was 9.51 in test [1] and 10.57 in test [2].
